{"source": "patent US20260216057A1", "about": "“PHARMACEUTICAL COMPOSITIONS FOR HERPES VIRUS” (priority 2022, published 2026)", "key": {"[1]": {"test": "Injection site observation in Example 7 Compound 1 PK studies", "format": "in vivo, rat, monkey, dog", "conditions": "SC Compound 1 depot formulations, Example 7, 3 species", "method": "The suspension was then dosed to male SD rats at 10 mg/kg according to the Example 2 animal dosing method. The suspension was then dosed to male cyno monkeys at 10 mg/kg according to the Example 3 animal dosing method. The suspension was then dosed to male non-naïve beagle dogs at 10 mg/kg according to the Example 4 animal dosing method."}, "[2]": {"test": "Example 16: Compound 1 solution SC PK study in dog", "format": "in vivo, male non-naïve Beagle dogs", "conditions": "10 mg/kg", "method": "The LC-MS methodology and conditions used to analyse the helicase-primase inhibitor Compound 1 in dog plasma samples from the dog PK study described in Example 16 are given in Table 9.\nA solution of Compound 1 in 90% NMP and 10% Solutol HS15 at a concentration of 50 mg/mL was prepared as follows: • 1) An appropriate amount of crystalline Compound 1 (Form C) was weighed and added to NMP. • 2) After Compound 1 had dissolved, Solutol HS15 was added to the solution and mixed. • 3) The final dosing formulation was a clear solution.\nA solution of Compound 1 in 90% NMP and 10% Solutol HS15 at a concentration of 100 mg/mL was prepared as follows: • 1) An appropriate amount of crystalline Compound 1 (Form C) was weighed and added to NMP. • 2) After Compound 1 had dissolved, Solutol HS15 was added to the solution and mixed. • 3) The final dosing formulation was a clear solution.\nMale non-naïve beagles were used for the dog PK study. The animals had free access to food and water. The prepared 50 mg/mL solution was administered via subcutaneous injection to each animal group (n=3) with a dosing volume of 0.2 mL/kg to achieve a 10 mg/kg dose. […]\nAt each time point, approximately 0.5 mL of whole blood was collected into K2EDTA tubes. […] Plasma samples were stored at approximately −70° C. until analyzed by LC-MS."}}, "data": [{"molecule": "Cc1nc(N2CCCN(c3ccc(-c4cc(F)ccc4F)cc3)C2=O)sc1S(N)(=O)=O", "note": "[Compound 1, 2-(3-(2′,5′-difluoro-[1,1′-biphenyl]-4-yl)-2-oxotetrahydropyrimidin-1(2H)-yl)-4-methylthiazole-5-sulfonamide]", "values": [{"measurement": "adverse reactions at the injection sites", "setting": "[1]", "value": "no adverse reactions observed"}, {"measurement": "adverse reactions at the injection sites", "setting": "[2]; both solution formulations", "value": "no adverse reactions were observed"}, {"measurement": "prolonged exposure for (length of the study)", "setting": "[2]; solutions 50 mg/mL (0.2 mL/kg) and 100 mg/mL (0.1 mL/kg), both formulations", "value": "at least 60 days"}]}]}
